Source: PMC9820345, “Metal Complexes of a 5-Nitro-8-Hydroxyquinoline-Proline Hybrid with Enhanced Water Solubility Targeting Multidrug Resistant Cancer Cells” (International Journal of Molecular Sciences, 2022)

Columns and labels:
OATP1B1 = molecular target: T1, OATP1B1 (Homo sapiens, UniProt Q9Y6L6); experiment: OATP uptake assay, OATP1B1; assay type: cell-based; settings: human, 10 μM
T1 construct: expressed in transfected cells; host or cells: A431 epidermoid carcinoma cells
T1 sequence (Q9Y6L6 1-691): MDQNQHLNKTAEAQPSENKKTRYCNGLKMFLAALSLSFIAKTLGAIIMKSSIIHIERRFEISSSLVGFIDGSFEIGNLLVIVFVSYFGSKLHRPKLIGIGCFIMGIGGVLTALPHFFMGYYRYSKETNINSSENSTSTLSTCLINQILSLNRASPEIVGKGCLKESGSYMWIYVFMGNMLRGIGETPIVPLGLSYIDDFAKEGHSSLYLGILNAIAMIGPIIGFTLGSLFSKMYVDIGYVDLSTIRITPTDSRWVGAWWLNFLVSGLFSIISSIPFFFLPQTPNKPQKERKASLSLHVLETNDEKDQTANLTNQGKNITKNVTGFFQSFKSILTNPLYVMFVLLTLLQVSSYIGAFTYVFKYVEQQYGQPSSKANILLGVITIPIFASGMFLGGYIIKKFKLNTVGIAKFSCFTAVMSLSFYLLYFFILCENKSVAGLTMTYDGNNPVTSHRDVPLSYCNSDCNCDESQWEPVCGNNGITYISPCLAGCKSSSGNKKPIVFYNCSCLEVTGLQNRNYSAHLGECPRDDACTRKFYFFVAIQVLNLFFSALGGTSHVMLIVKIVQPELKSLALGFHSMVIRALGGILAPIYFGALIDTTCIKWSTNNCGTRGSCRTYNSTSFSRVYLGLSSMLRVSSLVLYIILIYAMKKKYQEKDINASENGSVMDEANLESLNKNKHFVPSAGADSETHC
Protocol: Cell lines: A431 cells overexpressing OATP1B1 or OATP2B1, and their mock transfected controls were generated and characterized previously. The cell lines were cultured in DMEM (Gibco, Thermofisher Scientific, Waltham, MA, USA), supplemented with 10% fetal bovine serum, 2 mM L-glutamine, 100 μg/mL streptomycin, and 100 units/mL penicillin at 37 °C and 5% CO2.
OATP uptake assay: Prior to the experiment, A431 cells (8 × 10^4/well) were seeded on 96-well plates in 200 μL cell culture medium. After 16–24 h, the cells were washed with 200 μL PBS, three times and pre-incubated with 20–200 μM HQNO2-L-Pro, or buffer without HQNO2-L-Pro for 5 min at 37 °C in 50 μL HBSS (Hank’s Balanced Salt Solution, pH 7.4; OATP1B1) or uptake buffer (pH 5.5; OATP2B1 [63]). The reaction was started by the addition of disulfopyrene (6,8-dihydroxy-1,3-pyrenedisulfonic acid disodium salt, Sigma, Darmstadt, Germany) at a final concentration of 10 μM (OATP1B1) or pyranine (8-hydroxypyrene-1,3-pyrenetrisulfonic acid trisodium salt, Sigma, Darmstadt, Germany) at a final concentration of 20 μM (OATP2B1), and the cells were further incubated at 37 °C for 10 min (OATP1B1) or 15 min (OATP2B1). The reaction was stopped by removing the supernatant after which the cells were washed three times with ice-cold PBS. Fluorescence (in 200 μL PBS) was determined using an Enspire plate reader (PerkinElmer, Waltham, MA, USA) with excitation/emission wavelengths of 460/510 nm. OATP-dependent transport was calculated by subtracting fluorescence measured in mock transfected cells. Transport activity was calculated based on the fluorescence signal in the absence (100%) of HQNO2-L-Pro. Experiments were repeated in at least three biological replicates.

[1] = Formation constants of Fe(II) complexes by UV-vis spectrophotometric titrations; assay type: physicochemical; settings: I = 0.1 M KCl, 25.0 °C
Protocol: UV-vis titrations were performed to determine the formation (overall stability) constants (β) for the complexes of HQNO2-L-Pro formed with Fe(III) and Fe(II) ions (Figures S10 and S11). In the latter case, titrations were performed in a laboratory glove box. The calculations were complicated by the overlapping feature of the ligand bands and the charge transfer bands of the complexes. Based on the absorption spectra Figures S10a and S11a), formation of mono, bis, and tris complexes were found in both chemical systems; obtained constants are collected in Table 2. […] Based on the concentration distribution diagrams (see Figure S10b for Fe(III) and Figure S11b for Fe(II)), it can be concluded that the tris complexes are the dominant species at pH 7.4 in the case of Fe(III), while with Fe(II) both tris and bis-ligand species are formed under the conditions of the titrations.
An Agilent Cary 8454 diode array spectrophotometer (Santa Clara, CA, USA) was used to obtain UV-vis spectra in the wavelength range 200–1000 nm, while spectra were recorded for the Fe(II)-containing samples using an Avantes (Avantes B.V., Apeldoorn, The Nederlands) AvaSpec-ULS2048CL-EVO spectrometer with an AvaLight-DHc light source and FDP-7UVIR200-2-VAR transmission dip probe. The titrations for the Fe(II)-containing samples were performed in a laboratory glove box (GP(Campus), Jacomex) (O2 content ≤ 1 ppm). The path length (ℓ) was 1 cm in most cases (the actual ℓ is always indicated in the legends of the figures). The concentrations of the ligands and complexes were between 40 and 200 µM, and 0.2 M KNO3 for the organometallic complexes or 0.1 M KCl for the Fe(II/III), Cu(II), and Zn(II) complexes were used to adjust the constant ionic strength. For HSA containing samples, complex concentrations were 50 µM, and 0.5, and 2 equiv. biomolecules were added for kinetic studies, respectively. For HSA model containing samples, complex concentrations were 50 µM, and the model concentrations were 0–150 µM and 0–500 µM, respectively, and the pH was 7.4 (PBS’). Spectra were always background and baseline corrected. The computer program HypSpec was used to obtain stability constants. Hydrolysis constants of the Fe(III), Fe(II), RuCym, and RhCp* species were included in the speciation models (see Table S4 with the data taken from References).

Question: Which activity at 10 min, 100 µM (OATP1B1; A431 cells overexpressing OATP1B1, pH 7.4, probe disulfopyrene, 100 μM, absence of compound = 100%, n = 3, ± SD, read-out: transport activity % OATP1B1) does the source give for O=C(O)[C@@H]1CCCN1Cc1cc([N+](=O)[O-])c2cccnc2c1O [HQNO2-L-Pro, (2S)-1-((8-hydroxy-5-nitroquinolin-7-yl)methyl)pyrrolidin-1-ium-2-carboxylate] here?
Answer: 88.1 ± 5.9%

Question: What about the activity at 10 min, 10 µM (OATP1B1; A431 cells overexpressing OATP1B1, pH 7.4, probe disulfopyrene, absence of compound = 100%, n = 3, ± SD, read-out: transport activity % OATP1B1) of the same compound?
Answer: 106 ± 4.1%

Question: And the inhibition at 10 min, 100 µM (OATP1B1; probe disulfopyrene, at 100 μM, A431 cells overexpressing OATP1B1, pH 7.4, read-out: inhibition of OATP1B1 function)?
Answer: < 20%

Question: And the “logβ [M(HL)2]” value [1]?
Answer: 32.74 ± 0.03

Question: What about the “logβ [M(HL)3]” value [1] of the same compound?
Answer: 47.60 ± 0.06

Question: What about the “logβ [M(HL)]” value [1] of the same compound?
Answer: 16.52 ± 0.03

Question: What about the “logβ [M(L)]” value [1] of the same compound?
Answer: 8.39 ± 0.03
